Laboratory results published in patent US20070037785A1, “Novel dipeptidyl peptidase IV inhibitors used for functionally influencing different cells and treating immunological, infammatory, neuronal, and other diseases” (priority 2003, published 2007).

What follows are compounds tested against dipeptidyl peptidase IV (Homo sapiens, UniProt P27487) (assay: biochemical). Conditions: values marked with "*" are ID50 values; read-out: IC50DPIV, values marked with "*" = ID50.
Sequence of dipeptidyl peptidase IV (P27487 whole entry, species assumed): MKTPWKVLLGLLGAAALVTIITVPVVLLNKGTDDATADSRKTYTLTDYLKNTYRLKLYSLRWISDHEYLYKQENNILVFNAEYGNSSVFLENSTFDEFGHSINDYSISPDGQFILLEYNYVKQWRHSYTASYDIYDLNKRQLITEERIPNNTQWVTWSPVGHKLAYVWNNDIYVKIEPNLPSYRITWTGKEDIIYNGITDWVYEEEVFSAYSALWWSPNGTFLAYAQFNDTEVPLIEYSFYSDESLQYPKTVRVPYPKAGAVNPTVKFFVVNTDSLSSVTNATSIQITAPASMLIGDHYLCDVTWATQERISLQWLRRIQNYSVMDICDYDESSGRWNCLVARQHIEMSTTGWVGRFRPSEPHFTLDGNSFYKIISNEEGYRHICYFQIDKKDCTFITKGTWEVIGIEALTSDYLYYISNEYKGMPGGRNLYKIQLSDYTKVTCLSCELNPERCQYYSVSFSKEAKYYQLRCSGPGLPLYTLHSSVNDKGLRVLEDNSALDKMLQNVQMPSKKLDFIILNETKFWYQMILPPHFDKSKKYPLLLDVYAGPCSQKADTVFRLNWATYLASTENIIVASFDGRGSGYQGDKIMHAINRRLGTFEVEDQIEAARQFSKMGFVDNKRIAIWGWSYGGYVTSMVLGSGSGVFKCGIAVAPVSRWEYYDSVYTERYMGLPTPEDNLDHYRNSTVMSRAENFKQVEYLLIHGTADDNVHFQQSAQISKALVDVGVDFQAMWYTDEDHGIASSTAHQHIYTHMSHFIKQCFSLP
In the case of `CCOC(=O)n1ccc(C(=O)Nc2cc(C)ccn2)n1` [D6.112], the IC50 is reported as 148 µM. In the case of `CCOC(=O)c1c(NC(=O)c2cccc([N+](=O)[O-])c2)sc(C(C)=O)c1C` [D6.117], the IC50 is reported as 215 µM. `O=C(CC1(O)OC(c2ccccc2)=CC1=O)c1ccccc1` (centres unmarked) [D6.122] was tested, and the IC50 was 252 µM. `COc1ccc(NC(=O)CSc2nnc3n2-c2sc4c(c2C(=O)C3CCc2ccccc2)CC(C)(C)OC4)cc1` (centres unmarked) [D6.126] gave an IC50 of 284 µM. `CCn1c2ccccc2c2ccc(/C=N/NC(=O)c3ccc([N+](=O)[O-])cc3)cc21` [D7.001] showed an IC50 of 165 µM. In the case of `COc1ccc(N(C(C)C(=O)N/N=C/c2ccc(Cl)cc2Cl)S(C)(=O)=O)cc1` (centres unmarked) [D9.001], the IC50 is reported as 2.9 µM. For `Cc1cc(NNC(=O)COc2ccc(Cl)cc2Cl)nc(NS(=O)(=O)c2ccccc2)n1` [D9.015], the IC50 was 465 µM. Work on `O=C(CCCCC(=O)N/N=C/c1ccc(OC(=O)c2cc([N+](=O)[O-])cc([N+](=O)[O-])c2)cc1)N/N=C/c1ccc(OC(=O)c2cc([N+](=O)[O-])cc([N+](=O)[O-])c2)cc1` [D10.001] yielded an IC50 of 1 µM. With `COc1cc(/C=N/NC(=O)c2cc(O)c(O)c(O)c2)cc(Br)c1OCc1ccccc1Cl` [D10.002] the IC50 was 2 µM. With `COc1ccc(N(C(C)C(=O)N/N=C/c2ccc(Cl)cc2Cl)S(C)(=O)=O)cc1` (centres unmarked) [D10.003] the IC50 was 2.9 µM. `C/C(=N\NC(=O)c1cc(-c2ccc(CC(C)C)cc2)n[nH]1)c1ccc2ccccc2c1` [D10.007] was tested, and the IC50 was 7.2 µM.

Same assay, conditions: values without "*" = IC-50; read-out: IC50DPIV
In the case of `COc1ccc(-c2ccc(C3Nc4ccc5ccccc5c4C4=C3C(=O)CC(C)(C)C4)o2)cc1Cl` (centres unmarked) [D6.098], the IC50 is reported as 87.9 µM. `CC1=C(C#N)C(=O)N=C(O)/C1=C\c1ccc(-c2ccc(Cl)cc2Cl)o1` [D6.101] showed an IC50 of 95.8 µM. `COC(=O)c1ccc(NC(=O)/C(=C\c2cccc([N+](=O)[O-])c2)NC(=O)c2ccc(Br)o2)cc1` [D6.108] gave an IC50 of 115 µM. With `Cc1ccc(S(=O)(=O)CNC(=S)c2ccc3ccccc3c2)cc1` [D9.002] the IC50 was 14.5 µM. `CCCC(=O)Oc1ccc(N(C(=O)CCC)S(=O)(=O)c2cccs2)cc1` [D9.004] gave an IC50 of 31.3 µM. Work on `CCOC(=O)c1c(C)oc2c1c1c(c3ccccc32)OCN(C2CCS(=O)(=O)C2)C1` (centres unmarked) [D9.006] yielded an IC50 of 34.2 µM. `CS(=O)(=O)N1CCN(C(=O)Nc2ccc(C(F)(F)F)cc2)C1C(=O)NCc1cccc(N)c1` (centres unmarked) [D9.007] was tested, and the IC50 was 40.5 µM. `CCOP(=O)(CC(=O)N1CCN(C(=O)Nc2cccc(Br)c2)C1C(=O)NCc1cccc(CN)c1)OCC` (centres unmarked) [D9.008] gave an IC50 of 46.3 µM. In the case of `COc1ccc(NS(=O)(=O)c2ccc(/N=C/c3cc(Br)cc(Br)c3O)cc2)nn1` [D9.010], the IC50 is reported as 88.8 µM. `O=C(N/N=C/c1ccc([N+](=O)[O-])c(O)c1)/C(=C\c1cccs1)NC(=O)c1ccccc1` [D10.004] gave an IC50 of 6.5 µM. In the case of `CCC(=O)Oc1ccc(/C=N/NC(=O)c2ccccc2[N+](=O)[O-])c(OC(=O)CC)c1` [D10.005], the IC50 is reported as 6.6 µM. Compound `CN(C)c1ccc(/C=N\NC(=O)c2cc(N)ccc2O)cc1` [D10.008] has an IC50 of 7.6 µM. With `O=C(N/N=C/c1cc([N+](=O)[O-])ccc1O)c1cccc2cc[nH]c12` [D10.009] the IC50 was 8.1 µM. `COc1cc(Br)cc(Br)c1OCC(=O)N/N=C/c1cc(O)c(O)c(Br)c1Br` [D10.010] showed an IC50 of 9.1 µM. With `CC(=O)N(C(C)=O)c1nc(-c2ccccc2)cn1/N=C/c1ccccc1` [D10.011] the IC50 was 9.9 µM. `Nc1nonc1-n1nnc(C(=O)NN=C2c3ccccc3-c3ccccc32)c1-c1ccccc1` [D10.012] showed an IC50 of 10 µM. Compound `COc1cc(Br)ccc1OCC(=O)N/N=C/c1cc(O)c(O)c(Br)c1Br` [D10.013] has an IC50 of 10.2 µM. Work on `O=C(COc1cccc(Br)c1)N/N=C/c1cc(O)c(O)c(Br)c1Br` [D10.014] yielded an IC50 of 11.4 µM. In the case of `Brc1cccc(/C=N/Nc2nnc3c(n2)[nH]c2ccccc23)c1` [D10.015], the IC50 is reported as 12.2 µM. For `COc1ccc(/C=N/NC(=O)c2cc(O)c(O)c(O)c2)cc1COc1cc(C)c(Cl)c(C)c1` [D10.016], the IC50 was 12.3 µM. Work on `COc1ccccc1/C=N/NC(=O)c1cccc([N+](=O)[O-])c1` [D10.017] yielded an IC50 of 12.3 µM. In the case of `O=C(Cn1c2ccccc2c(=O)c2ccccc21)NN=Cc1cc(Br)c(O)c(Br)c1` [D10.018], the IC50 is reported as 12.4 µM. In the case of `COc1c(OC(C)=O)ccc(/C=N/NC(=O)CNc2cccc(C)c2)c1[N+](=O)[O-]` [D10.019], the IC50 is reported as 12.7 µM. `O=C(CCCCC(=O)N/N=C/c1ccccc1[N+](=O)[O-])N/N=C/c1ccccc1[N+](=O)[O-]` [D10.020] gave an IC50 of 12.8 µM. Work on `Cc1cccc(C(=O)Oc2c(Br)cc(Br)cc2/C=N/NC(=O)CNC(=O)c2ccc(Cl)cc2)c1` [D10.021] yielded an IC50 of 13.2 µM. Work on `C/C(=N\NC(=O)CSCc1ccccc1Br)c1ccc(I)cc1` [D10.022] yielded an IC50 of 13.2 µM. In the case of `CCOc1cc(/C=N/NC(=O)c2cc(C)n[nH]2)ccc1O` [D10.023], the IC50 is reported as 13.6 µM. Compound `CCOc1cc(/C=N/NC(=O)c2cc(C)oc2C)ccc1O` [D10.025] has an IC50 of 16.2 µM. Work on `O=C(N/N=C/c1ccc(-c2ccc(Cl)cc2)o1)/C(=C/c1ccc([N+](=O)[O-])cc1)NC(=O)c1ccccc1` [D10.026] yielded an IC50 of 16.4 µM. With `CCOc1cc(/C=N\NC(=O)c2cnccn2)ccc1O` [D10.027] the IC50 was 16.7 µM. Work on `O=C(N/N=C/c1ccc(OC(=O)c2ccco2)c([N+](=O)[O-])c1)/C(=C\c1cccs1)NC(=O)c1ccccc1` [D10.028] yielded an IC50 of 16.7 µM. `O=C(N/N=C/c1cc([N+](=O)[O-])cc([N+](=O)[O-])c1O)/C(=C\c1cccs1)NC(=O)c1ccccc1` [D10.029] was tested, and the IC50 was 17.5 µM. With `Cc1ccc(OCC(=O)N/N=C\c2ccc(O)c([N+](=O)[O-])c2)c([N+](=O)[O-])c1` [D10.030] the IC50 was 17.8 µM. `COc1ccc2ccccc2c1/C=N/NC(=O)c1cc2ccccc2cc1O` [D10.031] showed an IC50 of 17.8 µM. `O=C(CNc1ccc2ccccc2c1)N/N=C1/C(=O)Nc2ccc([N+](=O)[O-])cc21` [D10.032] showed an IC50 of 18.2 µM. `COc1cc(/C=N/NC(=O)COc2ccc(C(C)(C)CC(C)(C)C)cc2)cc([N+](=O)[O-])c1O` [D10.033] gave an IC50 of 18.9 µM. Compound `CCOc1cc(/C=N/NC(=O)c2cc(O)c(O)c(O)c2)ccc1O` [D10.034] has an IC50 of 19.1 µM. In the case of `CCOc1cc(/C=N/NC(=O)COc2ccc(Cl)cc2)ccc1OC(=O)c1ccc(Br)cc1` [D10.035], the IC50 is reported as 20 µM. Work on `O=C(Cn1nnc(-c2ccc(F)cc2)n1)N/N=C/c1ccc(-c2ccc3c(c2)COC3=O)o1` [D10.036] yielded an IC50 of 20.3 µM. In the case of `CCN(CC)c1ccc(/C=C(/NC(=O)c2ccccc2)C(=O)N/N=C/c2c(C)c(Br)c(O)c(Br)c2O)cc1` [D10.037], the IC50 is reported as 20.4 µM. In the case of `CC(/C=N/NC(=O)CNc1ccc(C)cc1)=C\c1ccc(/C=C(C)/C=N/NC(=O)CNc2ccc(C)cc2)cc1` [D10.038], the IC50 is reported as 20.5 µM. `CCOc1cc(/C=N/NC(=O)c2cc(C3CC3)[nH]n2)ccc1O` [D10.039] gave an IC50 of 20.8 µM. `O=C(N/N=C/c1ccc([N+](=O)[O-])o1)c1ccccc1I` [D10.040] gave an IC50 of 20.9 µM. For `COc1cc(/C=N/NC(=O)c2ccco2)cc(OC)c1OC(C)=O` [D10.041], the IC50 was 21.8 µM. With `O=C(N/N=C/c1cc(Br)ccc1OC(=O)c1ccco1)/C(=C\c1cccs1)NC(=O)c1ccccc1` [D10.042] the IC50 was 24.1 µM. Compound `O=C(N/N=C\c1cccc(OC(=O)c2ccc([N+](=O)[O-])cc2)c1)/C(=C/c1ccc2c(c1)OCO2)NC(=O)c1ccccc1` [D10.043] has an IC50 of 24.2 µM. With `O=C(COc1cccc([N+](=O)[O-])c1)N/N=C/c1ccc(O)c([N+](=O)[O-])c1` [D10.044] the IC50 was 24.4 µM. For `Cc1ccc(/C=N/NC(=O)c2ccc(NC(=O)c3cccc([N+](=O)[O-])c3)cc2)o1` [D10.045], the IC50 was 28.8 µM. `COc1cc(Br)c(OCC(=O)N/N=C/c2cc(Br)c(O)c(O)c2Br)c(Br)c1` [D10.046] showed an IC50 of 29.2 µM. Work on `C/C(=N\NC(=O)c1cc(C)n[nH]1)c1ccc(-c2ccccc2)cc1` [D10.047] yielded an IC50 of 29.8 µM. For `O=C(COc1cccc(Cl)c1)N/N=C/c1ccc(O)c([N+](=O)[O-])c1` [D10.049], the IC50 was 31.9 µM. For `COc1cc(Br)cc(Br)c1OCC(=O)N/N=C/c1ccc(O)c([N+](=O)[O-])c1` [D10.050], the IC50 was 32.1 µM. With `CN(C)c1ccc(/C=C(\NC(=O)c2ccccc2)C(=O)N/N=C/c2cc(/N=N/c3ccccc3)ccc2O)cc1` [D10.051] the IC50 was 33.9 µM. In the case of `CC(=O)Oc1ccc(-c2ccc(/C=N/NC(=O)C34CC5CC(C3)CC(c3ccc(C)cc3)(C5)C4)cc2)cc1` [D10.052], the IC50 is reported as 32.9 µM. `COc1ccc(/C(C)=N/NC(=O)CNc2ccc3ccccc3c2)cc1OC` [D10.053] was tested, and the IC50 was 32.9 µM. `O=C(N/N=C/c1cccc(Oc2ccccc2)c1)c1cc(Br)cc(Br)c1O` [D10.054] showed an IC50 of 33.3 µM. With `C/C(=N\NC(=O)/C(=C\c1ccc(F)cc1)NC(=O)c1ccccc1)c1ccccc1O` [D10.055] the IC50 was 33.4 µM. `O=C(N/N=C/c1c(O)ccc2ccccc12)c1cc(-c2ccc(-c3ccccc3)cc2)n[nH]1` [D10.056] gave an IC50 of 33.5 µM. `CN(/N=C/c1sc(=O)[nH]c1Cl)c1ccccc1` [D10.057] gave an IC50 of 32.4 µM. In the case of `COc1ccc(/C=N/N=C2\NC(=O)C(Cc3cccc(C(F)(F)F)c3)S2)cc1` (centres unmarked) [D10.058], the IC50 is reported as 34.2 µM. For `O=C(N/N=C/c1cccc(I)c1)c1cc(Br)ccc1O` [D10.060], the IC50 was 36.3 µM. Work on `CN(C)c1ccc(/C=C(\NC(=O)c2ccccc2)C(=O)N/N=C/c2ccccc2[N+](=O)[O-])cc1` [D10.061] yielded an IC50 of 39.2 µM. `O=C(N/N=C/c1cc(I)cc(I)c1O)c1ccc(NC(=O)c2ccccc2)cc1` [D10.062] was tested, and the IC50 was 39.7 µM. With `COc1ccc(C(=O)N/N=C/c2ccc(Cl)cc2Cl)cc1` [D10.063] the IC50 was 40.4 µM. With `Cc1ccc(C)n1-c1cccc(C(=O)N/N=C/c2cc(Br)c(O)c(Br)c2)c1` [D10.065] the IC50 was 41 µM. `COc1cc(/C=N/NC(=O)CNC(=O)c2ccc(Cl)cc2)ccc1OC(=O)c1cccc(F)c1` [D10.066] was tested, and the IC50 was 42 µM. `COc1cc(Br)ccc1OCC(=O)N/N=C/c1cc(Br)c(O)c(O)c1Br` [D10.067] showed an IC50 of 45 µM. With `COc1ccc(Br)cc1/C=N/NC(=O)COc1ccc(C)cc1[N+](=O)[O-]` [D10.068] the IC50 was 45.6 µM. With `O=C(N/N=C/c1cc([N+](=O)[O-])cc([N+](=O)[O-])c1O)/C(=C/c1ccc([N+](=O)[O-])cc1)NC(=O)c1ccccc1` [D10.069] the IC50 was 45.7 µM. `COc1cc(/C=N/NC(=O)/C(=C/c2ccc(N(C)C)cc2)NC(=O)c2ccccc2)cc(Br)c1O` [D10.070] was tested, and the IC50 was 46.2 µM. `Cc1cccc(C(=O)N/N=C/c2c(O)ccc3ccccc23)c1` [D10.072] was tested, and the IC50 was 46.7 µM. `O=C(Cn1c2ccccc2c(=O)c2ccccc21)N/N=C/c1cc(I)c(O)c([N+](=O)[O-])c1` [D10.073] showed an IC50 of 52.3 µM.
